“And” between values parts separate entries of the source, which are not always exact repeats. Identical values can stand only once.
Legend:
[1] = Tissue distribution and metabolism: polyamine content of kidney, liver and pancreas via HPLC; format: in vivo, Female CD-1 mice; details: DEHSPM 18.6 mg/kg/d IP x 5 d
Procedure: The tissue distribution and metabolism of DEHSPM, (HO)2DEHSPM HCl Salt and (HO)2DEHSPM Mesylate Salt in various organs were evaluated utilizing the following protocol:
Tissue Distribution and Metabolism of DEHSPM, (HO)2DEHSPM HCl Salt and (HO)2DEHSPM Mesylate Salt
• 1) DEHSPM, (HO)2DEHSPM HCl salt, and (HO)2DEHSPM mesylate salt were dissolved in sterile normal saline; the pH was not adjusted. • 2) Female CD-1 mice were given the drugs at equimolar dosages intraperitoneally once daily for 5 days. • 3) The animals, n=3-4 per group, were euthanized 4, 8, or 24 h post-last dose. • 4) The kidney, liver, and pancreas were removed and assessed for their polyamine content via HPLC analysis. • 5) The polyamine concentration data (mean±STD) are expressed as nmol/g wet weight of tissue. SPM, spermine; SPD, spermidine; PUT, putrescine; N.D., not determined. • 6) A one-tailed t test assuming unequal variance was performed on the tissue polyamine concentration data. A value of p<0.05 was considered significant.

[2] = mice, three weeks after a seven day schedule; cited from earlier work

## CCNCCCCNCCCCNCCCCNCC [DEHSPM, Diethylhomospermine, reference compound]
[1]; kidney, 4 h post-last dose
  DEHSPM concentration: 428 ± 95 nmol/g wet weight of tissue
  PUT concentration: 0 ± 0 nmol/g wet weight of tissue
  SPD concentration: 270 ± 61 nmol/g wet weight of tissue
  SPM concentration: 243 ± 49 nmol/g wet weight of tissue
[1]; kidney, 8 h post-last dose
  DEHSPM concentration: 425 ± 82 nmol/g wet weight of tissue
  PUT concentration: 0 ± 0 nmol/g wet weight of tissue
  SPD concentration: 159 ± 4 nmol/g wet weight of tissue
  SPM concentration: 240 ± 52 nmol/g wet weight of tissue
[1]; kidney, 24 h post-last dose
  DEHSPM concentration: 260 ± 19 nmol/g wet weight of tissue
  PUT concentration: 0 ± 0 nmol/g wet weight of tissue
  SPD concentration: 150 ± 37 nmol/g wet weight of tissue
  SPM concentration: 223 ± 61 nmol/g wet weight of tissue
[1]; liver, 4 h post-last dose
  DEHSPM concentration: 148 ± 46 nmol/g wet weight of tissue
  PUT concentration: 0 ± 0 nmol/g wet weight of tissue
  SPD concentration: 540 ± 77 nmol/g wet weight of tissue
  SPM concentration: 764 ± 49 nmol/g wet weight of tissue
[1]; liver, 8 h post-last dose
  DEHSPM concentration: 144 ± 7 nmol/g wet weight of tissue
  PUT concentration: 0 ± 0 nmol/g wet weight of tissue
  SPD concentration: 710 nmol/g wet weight of tissue and 710 ± 132 nmol/g wet weight of tissue
  SPM concentration: 899 ± 40 nmol/g wet weight of tissue
[1]; liver, 24 h post-last dose
  DEHSPM concentration: 79 ± 10 nmol/g wet weight of tissue
  PUT concentration: 21 ± 15 nmol/g wet weight of tissue
  SPD concentration: 578 nmol/g wet weight of tissue and 578 ± 150 nmol/g wet weight of tissue
  SPM concentration: 809 ± 45 nmol/g wet weight of tissue
[1]; pancreas, 4 h post-last dose
  DEHSPM concentration: 330 ± 37 nmol/g wet weight of tissue
  PUT concentration: 43 ± 10 nmol/g wet weight of tissue
  SPD concentration: 6054 nmol/g wet weight of tissue and 6054 ± 878 nmol/g wet weight of tissue
  SPM concentration: 1000 nmol/g wet weight of tissue and 1000 ± 124 nmol/g wet weight of tissue
[1]; pancreas, 8 h post-last dose
  DEHSPM concentration: 339 ± 59 nmol/g wet weight of tissue
  PUT concentration: 66 ± 33 nmol/g wet weight of tissue
  SPD concentration: 5789 nmol/g wet weight of tissue and 5789 ± 339 nmol/g wet weight of tissue
  SPM concentration: 1033 nmol/g wet weight of tissue and 1033 ± 290 nmol/g wet weight of tissue
[1]; pancreas, 24 h post-last dose
  DEHSPM concentration: 284 ± 50 nmol/g wet weight of tissue
  PUT concentration: 62 ± 29 nmol/g wet weight of tissue
  SPD concentration: 5807 nmol/g wet weight of tissue and 5807 ± 262 nmol/g wet weight of tissue
  SPM concentration: 1146 nmol/g wet weight of tissue and 1146 ± 107 nmol/g wet weight of tissue
[2]
  drug administered remaining in the liver and kidney as drug or metabolites: 35%
  drug remaining in the animal in the form of HSPM: 90%
